Data taken from ChEMBL document CHEMBL3217478, “Necrosulfonamide inhibits necroptosis by selectively targeting the mixed lineage kinase domain-like protein” (2014).
The source made the active and inactive calls. No cut-off for these calls is given here. Residues, ends and D or L forms follow the SMILES beside them. *: point of attachment. X1 = COc1nc(CCCN*)cnc1NS(=O)(=O)c1ccc(NC(=O)CCc2cccs2)cc1; Biotin = O=C1N[C@H]2[C@H](CS[C@H]2CCCCC(=O)*)N1; Ahx = NCCCCCC(=O)O

What was measured:
HT-29 = assay: Cytoprotective activity against TNF-alpha, smac mimetic, z-VAD-induced necrosis in human HT-29 cells assessed as cell survival by measuring cellular ATP level at 4 uM after 24 hrs by Cell Titer-Glo assay relative to control; assay type: functional; settings: for viability at 4 µM: HT-29, 24 h, read-out: Survival
[1] = target: T1, Mixed lineage kinase domain-like protein (Homo sapiens) (UniProt Q8NB16); assay: Competitive binding affinity to Myc-tagged MLKL (unknown origin) transfected in human HeLa cells at 20 nM by Western blot analysis in presence of biotin-labeled positive probe; assay type: cell-based
T1 sequence (whole entry): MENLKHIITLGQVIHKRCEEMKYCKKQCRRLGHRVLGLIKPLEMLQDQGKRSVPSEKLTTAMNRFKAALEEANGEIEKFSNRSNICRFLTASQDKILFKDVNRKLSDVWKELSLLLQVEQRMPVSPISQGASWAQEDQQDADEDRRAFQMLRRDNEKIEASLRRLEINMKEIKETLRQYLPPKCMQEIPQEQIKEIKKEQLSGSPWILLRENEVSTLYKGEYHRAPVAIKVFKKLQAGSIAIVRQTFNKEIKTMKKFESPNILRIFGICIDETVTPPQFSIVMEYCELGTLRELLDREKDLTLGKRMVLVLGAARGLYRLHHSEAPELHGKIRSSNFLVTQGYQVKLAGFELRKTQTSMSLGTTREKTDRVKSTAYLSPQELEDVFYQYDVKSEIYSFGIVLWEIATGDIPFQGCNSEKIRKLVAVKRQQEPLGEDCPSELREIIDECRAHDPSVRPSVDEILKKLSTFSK

Structure (SMILES) | viability at 4 µM (HT-29) [%] | Activity [1] | Activity (HT-29)
COc1nccnc1NS(=O)(=O)c1ccc(NC(=O)CCc2ccc([N+](=O)[O-])s2)cc1 | 29.9 |  | 
COc1nccnc1NS(=O)(=O)c1ccc(NC(=O)/C=C/c2cccc([N+](=O)[O-])c2)cc1 | 32 |  | 
COc1nccnc1NS(=O)(=O)c1ccc(NC(=O)/C=C/c2ccc([N+](=O)[O-])cc2)cc1 | 32.2 |  | 
COc1nccnc1NS(=O)(=O)c1ccc(NC(=O)/C=C/c2ccc(Br)s2)cc1 | 31.8 | inactive | 
C#CCOc1nccnc1NS(=O)(=O)c1ccc(NC(=O)/C=C/c2ccc([N+](=O)[O-])s2)cc1 | 90.8 |  | 
O=C(/C=C/c1ccc([N+](=O)[O-])s1)Nc1ccc(S(=O)(=O)Nc2nccnc2OCc2ccccc2)cc1 | 92.2 |  | 
COc1nccnc1NS(=O)(=O)c1ccc(NC(=O)/C=C/c2ccc([N+](=O)[O-])s2)cc1 | 80.3 | Active | 
COc1nc(CCCNC(=O)CC[C@H](NC(=O)[C@@H]2CCCN2C(=O)[C@@H]2CCCN2C(=O)[C@@H]2CCCN2C(=O)[C@@H]2CCCN2C(=O)[C@@H]2CCCN2C(=O)[C@@H]2CCCN2C(=O)[C@@H]2CCCN2C(=O)[C@@H]2CCCN2C(=O)[C@@H]2CCCN2C(=O)CCCCCNC(=O)CCCC[C@@H]2SC[C@@H]3NC(=O)N[C@@H]32)C(N)=O)cnc1NS(=O)(=O)c1ccc(NC(=O)CCc2cccs2)cc1 ({Biotin-Ahx}-PPPPPPPPPE(X1)-NH2) |  |  | inactive
O=C(/C=C/c1ccc([N+](=O)[O-])s1)Nc1ccc(S(=O)(=O)Nc2nccnc2O)cc1 | 90.4 |  | 
COc1nccnc1NS(=O)(=O)c1ccc(NC(=O)CCc2cccs2)cc1 | 30.4 |  | 
COc1nc(CCCNC(=O)CC[C@H](NC(=O)[C@@H]2CCCN2C(=O)[C@@H]2CCCN2C(=O)[C@@H]2CCCN2C(=O)[C@@H]2CCCN2C(=O)C2CCCN2C(=O)[C@@H]2CCCN2C(=O)[C@@H]2CCCN2C(=O)[C@@H]2CCCN2C(=O)[C@@H]2CCCN2C(=O)CCCCCNC(=O)CCCC[C@@H]2SC[C@@H]3NC(=O)N[C@@H]32)C(N)=O)cnc1NS(=O)(=O)c1ccc(NC(=O)/C=C/c2ccc([N+](=O)[O-])s2)cc1 (single isomer, unassigned) |  |  | Active
Cc1cc(C)nc(NS(=O)(=O)c2ccc(NC(=O)/C=C/c3ccc([N+](=O)[O-])s3)cc2)n1 | 79.2 |  | 
COc1nccnc1NS(=O)(=O)c1ccc(NC(=O)/C=C/c2cccs2)cc1 | 29.5 |  | 
COc1nc(Br)cnc1NS(=O)(=O)c1ccc(NC(=O)/C=C/c2ccc([N+](=O)[O-])s2)cc1 | 90.8 |  | 
C#CCOc1nccnc1NS(=O)(=O)c1ccc(NC(=O)/C=C/c2sccc2[N+](=O)[O-])cc1 | 19.8 | inactive | 
